Results: patent US5081225A, “Gram-positive and gram-negative antibacterial compounds from the microorganism, Janthinobacterium lividum” (E. R. Squibb & Sons, Inc., priority 1989, dated 1992)

Key:
[1] = tested on: Micrococcus luteus; assay: agar dilution MIC, aerobic organisms; settings: Table 1; Micrococcus luteus SC 2495
[2] = tested on: Streptococcus faecalis; assay: agar dilution MIC, aerobic organisms
[3] = tested on: Escherichia coli; assay: agar dilution MIC, aerobic organisms; settings: Table 1
[4] = tested on: Klebsiella aerogenes; assay: agar dilution MIC, aerobic organisms; settings: Table 1; Klebsiella aerogenes SC 10440
[5] = tested on: Staphylococcus epidermidis; assay: agar dilution MIC, aerobic organisms; settings: Table 2
[6] = tested on: Staphylococcus saprophyticus; assay: agar dilution MIC, aerobic organisms; settings: Table 2; Staphylococcus saprophyticus SC 12875
[7] = tested on: Pseudomonas aeruginosa; assay: agar dilution MIC, aerobic organisms; settings: Table 1
[8] = tested on: Nocardia asteroides; assay: agar dilution MIC, aerobic organisms; settings: Table 2; Nocardia asteroides SC 2626
[9] = tested on: Salmonella typhosa; assay: agar dilution MIC, aerobic organisms; settings: Table 1; Salmonella typhosa SC 1195
[10] = tested on: Staphylococcus aureus; assay: agar dilution MIC, aerobic organisms
[11] = tested on: Enterobacter cloacae; assay: agar dilution MIC, aerobic organisms; settings: Table 1; Enterobacter cloacae SC 8236
[12] = tested on: Citrobacter freundii; assay: agar dilution MIC, aerobic organisms; settings: Table 1; Citrobacter freundii SC 9518
[13] = tested on: Serratia marcescens; assay: agar dilution MIC, aerobic organisms; settings: Table 1; Serratia marcescens SC 9783
[14] = stability under acidic conditions (observed during isolation); assay type: physicochemical
Procedure: The methanol extract is added to MCI GEL CHP20P™ (CHP20P) in water and the mixture is stirred for one hour. The charged resin is collected by vacuum filtration and washed with methanol, water, and acetonitrile. The charged resin is then packed in a column and the antibiotics are eluted with acetonitrile-water-formic acid. Further purification is achieved by chromatography on SEPHADEX LH-20™ in acetonitrile-water. Partial resolution of the three antibiotics, janthinocin A, B, and C, is effected by chromatography on CHP20P eluting with a gradient of acetonitrile-water-formic acid. Final separation and purification of janthinocins B and C is achieved by chromaography on CHP20P eluting with an acetonitrile-aqueous ammonium dihydrogen phosphate buffer gradient, followed by desalting on CHP20P, eluting with acetonitrile-water-formic acid, to give the pure antibiotics as off white powders. […] When janthinocin C is present, it co-elutes with janthinocin B in each of the initial chromatographies.

[15] = tested on: Proteus rettgeri; assay: agar dilution MIC, aerobic organisms; settings: Table 1; Proteus rettgeri SC 8479
[16] = agar dilution MIC, aerobic organisms; settings: Table 2; Nocardia monocytogenes SC 8523
[17] = tested on: Enterobacter aerogenes; assay: agar dilution MIC, aerobic organisms; settings: Table 1; Enterobacter aerogenes SC 10078
[18] = tested on: Streptococcus agalactiae; assay: agar dilution MIC, aerobic organisms
[19] = tested on: Bacillus subtilis; assay: agar dilution MIC, aerobic organisms; settings: Table 2; Bacillus subtilis SC 3777
[20] = tested on: Proteus mirabilis; assay: agar dilution MIC, aerobic organisms; settings: Table 1; Proteus mirabilis SC 3855
[21] = tested on: Klebsiella pneumoniae; assay: agar dilution MIC, aerobic organisms; settings: Table 1; Klebsiella pneumoniae SC 9527
[22] = tested on: Acinetobacter calcoaceticus; assay: agar dilution MIC, aerobic organisms; settings: Table 1; Acinetobacter calcoaceticus SC 8333
[23] = tested on: Proteus vulgaris; assay: agar dilution MIC, aerobic organisms; settings: Table 1; Proteus vulgaris SC 9416
[24] = tested on: Shigella sonnei; assay: agar dilution MIC, aerobic organisms; assay type: cell-based; settings: Table 1; Shigella sonnei SC 8449
Description: The composition of K-10 agar was:

[25] = Table 1, Streptococcus faecalis SC 9011
[26] = Table 2, Streptococcus faecalis SC 9011
[27] = Table 2, Streptococcus faecalis SC 9376
[28] = Table 2, Streptococcus faecalis SC 10938
[29] = Staphylococcus epidermidis SC 9052 (Penicillin S)
[30] = Staphylococcus epidermidis SC 9083 (Penicillin R)
[31] = Staphylococcus epidermidis SC 9087 (Penicillin R)
[32] = Staphylococcus epidermidis SC 9607 (Penicillin R)
[33] = Staphylococcus epidermidis SC 10547 (Penicillin R)
[34] = Table 1, Staphylococcus aureus SC 1276
[35] = Table 1, Staphylococcus aureus SC 2399
[36] = Table 1, Staphylococcus aureus SC 2400
[37] = Table 1, Staphylococcus aureus SC 10165
[38] = Table 2, Staphylococcus aureus SC 2399 (Penicillin S)
[39] = Table 2, Staphylococcus aureus SC 2400 (Penicillin R)
[40] = Table 2, Staphylococcus aureus SC 3184 (Methicillin R)
[41] = Table 2, Staphylococcus aureus SC 9593 (Penicillin R)
[42] = Table 2, Staphylococcus aureus SC 9998 (Penicillin R)
[43] = Table 2, Staphylococcus aureus SC 10014 (Methicillin R)
[44] = Table 2, Staphylococcus aureus SC 10016 (Tetracycline R)
[45] = Table 2, Staphylococcus aureus SC 10020 (Methicillin R)
[46] = Table 2, Staphylococcus aureus SC 10820 (Erythromycin R)
[47] = Table 2, Staphylococcus aureus SC 11239 (Gentamicin R)
[48] = Table 2, Staphylococcus aureus SC 12691 (Erythromycin R)
[49] = Table 1, Streptococcus agalactiae SC 9287
[50] = Table 2, Streptococcus agalactiae SC 9285
[51] = Table 2, Streptococcus agalactiae SC 9287

For janthinocin A, the “MIC” value [1] was 0.2 µg/mL, the “MIC” value [2, 25] was 1.6 µg/mL and the “MIC” value [2, 26] was 0.8 µg/mL. The “MIC” value [2, 27] was 0.8 µg/mL, the “MIC” value [2, 28] was 1.6 µg/mL and the “MIC” value ([3]; Escherichia coli SC 8294) was 25 µg/mL. For the same substance, the “MIC” value ([3]; Escherichia coli SC 10896) was 6.3 µg/mL, the “MIC” value ([3]; Escherichia coli SC 10909) was 6.3 µg/mL and the “MIC” value [4] was 25 µg/mL. For the same substance, the “MIC” value [5, 29] was 0.8 µg/mL, the “MIC” value [5, 30] was 0.8 µg/mL and the “MIC” value [5, 31] was 0.8 µg/mL. The “MIC” value [5, 32] was 0.4 µg/mL, the “MIC” value [5, 33] was 0.8 µg/mL and the “MIC” value [6] was 0.8 µg/mL. For the same substance, the “MIC” value ([7]; Pseudomonas aeruginosa SC 8329) was 100 µg/mL, the “MIC” value ([7]; Pseudomonas aeruginosa SC 9545) was 50 µg/mL and the “MIC” value [8] was 0.8 µg/mL. The “MIC” value [9] was 12.5 µg/mL, the “MIC” value [10, 34] was 0.8 µg/mL and the “MIC” value [10, 35] was 1.6 µg/mL. The “MIC” value [10, 36] was 1.6 µg/mL, the “MIC” value [10, 37] was 1.6 µg/mL and the “MIC” value [10, 38] was 0.8 µg/mL. For the same substance, the “MIC” value [10, 39] was 0.4 µg/mL, the “MIC” value [10, 40] was 1.6 µg/mL and the “MIC” value [10, 41] was 0.8 µg/mL. For the same substance, the “MIC” value [10, 42] was 0.8 µg/mL, the “MIC” value [10, 43] was 0.4 µg/mL and the “MIC” value [10, 44] was 0.2 µg/mL. The “MIC” value [10, 45] was 0.4 µg/mL, the “MIC” value [10, 46] was 0.8 µg/mL and the “MIC” value [10, 47] was 0.8 µg/mL. For the same substance, the “MIC” value [10, 48] was 0.4 µg/mL, the “MIC” value [11] was 25 µg/mL and the “MIC” value [12] was 25 µg/mL. The “MIC” value [13] was 25 µg/mL, the chemical stability [14] was “converted to janthinocin C under acidic conditions” and the “MIC” value [15] was 50 µg/mL. The “MIC” value [16] was 0.8 µg/mL, the “MIC” value [17] was 25 µg/mL and the “MIC” value [18, 49] was 0.2 µg/mL. For the same substance, the “MIC” value [18, 50] was 0.4 µg/mL, the “MIC” value [18, 51] was 0.4 µg/mL and the “MIC” value [19] was 0.4 µg/mL. The “MIC” value [20] was 100 µg/mL and the “MIC” value [21] was 25 µg/mL.
With janthinocin C the “MIC” value [1] was 1.6 µg/mL, the “MIC” value [2, 25] was 12.5 µg/mL and the “MIC” value ([3]; Escherichia coli SC 8294) was over 100 µg/mL. For the same substance, the “MIC” value ([3]; Escherichia coli SC 10857) was 50 µg/mL, the “MIC” value ([3]; Escherichia coli SC 10896) was 50 µg/mL and the “MIC” value ([3]; Escherichia coli SC 10909) was 25 µg/mL. The “MIC” value [4] was 100 µg/mL, the “MIC” value ([7]; Pseudomonas aeruginosa SC 8329) was over 100 µg/mL and the “MIC” value ([7]; Pseudomonas aeruginosa SC 9545) was over 100 µg/mL. The “MIC” value [9] was 100 µg/mL, the “MIC” value [10, 34] was 1.6 µg/mL and the “MIC” value [10, 35] was 3.1 µg/mL. The “MIC” value [10, 36] was 3.1 µg/mL, the “MIC” value [10, 37] was 1.6 µg/mL and the “MIC” value [11] was over 100 µg/mL. The “MIC” value [12] was 100 µg/mL, the “MIC” value [13] was over 100 µg/mL and the “MIC” value [15] was over 100 µg/mL. For the same substance, the “MIC” value [17] was over 100 µg/mL, the “MIC” value [18, 49] was 0.8 µg/mL and the “MIC” value [22] was 25 µg/mL. The “MIC” value [23] was over 100 µg/mL, the “MIC” value [20] was over 100 µg/mL and the “MIC” value [21] was over 100 µg/mL. For the same substance, the “MIC” value [24] was 100 µg/mL.
For janthinocin B, the “MIC” value [1] was 0.2 µg/mL, the “MIC” value [2, 25] was 1.6 µg/mL and the “MIC” value [2, 26] was 1.6 µg/mL. The “MIC” value [2, 27] was 1.6 µg/mL, the “MIC” value [2, 28] was 0.8 µg/mL and the “MIC” value ([3]; Escherichia coli SC 8294) was 25 µg/mL. The “MIC” value ([3]; Escherichia coli SC 10896) was 6.3 µg/mL, the “MIC” value ([3]; Escherichia coli SC 10909) was 6.3 µg/mL and the “MIC” value [4] was 50 µg/mL. The “MIC” value [5, 29] was 0.4 µg/mL, the “MIC” value [5, 30] was 0.4 µg/mL and the “MIC” value [5, 31] was 0.4 µg/mL. For the same substance, the “MIC” value [5, 32] was 0.4 µg/mL, the “MIC” value [5, 33] was 0.4 µg/mL and the “MIC” value [6] was 0.4 µg/mL. For the same substance, the “MIC” value ([7]; Pseudomonas aeruginosa SC 8329) was 100 µg/mL, the “MIC” value ([7]; Pseudomonas aeruginosa SC 9545) was 50 µg/mL and the “MIC” value [8] was 3.1 µg/mL. For the same substance, the “MIC” value [9] was 12.5 µg/mL, the “MIC” value [10, 34] was 0.4 µg/mL and the “MIC” value [10, 35] was 1.6 µg/mL. The “MIC” value [10, 36] was 1.6 µg/mL, the “MIC” value [10, 37] was 0.8 µg/mL and the “MIC” value [10, 38] was 0.4 µg/mL. The “MIC” value [10, 39] was 0.8 µg/mL, the “MIC” value [10, 40] was 0.4 µg/mL and the “MIC” value [10, 41] was 0.4 µg/mL. For the same substance, the “MIC” value [10, 42] was 0.1 µg/mL, the “MIC” value [10, 43] was 0.4 µg/mL and the “MIC” value [10, 44] was 0.4 µg/mL. The “MIC” value [10, 45] was 0.4 µg/mL, the “MIC” value [10, 46] was 0.2 µg/mL and the “MIC” value [10, 47] was 0.2 µg/mL. The “MIC” value [10, 48] was 0.4 µg/mL, the “MIC” value [11] was 50 µg/mL and the “MIC” value [12] was 25 µg/mL. The “MIC” value [13] was 50 µg/mL, the “MIC” value [15] was 100 µg/mL and the “MIC” value [16] was 1.6 µg/mL. For the same substance, the “MIC” value [17] was 50 µg/mL, the “MIC” value [18, 49] was under 0.05 µg/mL and the “MIC” value [18, 50] was under 0.05 µg/mL. For the same substance, the “MIC” value [18, 51] was under 0.05 µg/mL, the “MIC” value [22] was 25 µg/mL and the “MIC” value [19] was 0.1 µg/mL. The “MIC” value [20] was 100 µg/mL and the “MIC” value [21] was 25 µg/mL.
